Assays:
PRMT5 [1] = molecular target: T1, PRMT5 (Homo sapiens, UniProt O14744); test: AlphaLISA enzymatic inhibition assay; type: biochemical; set-up: made in house; host or cells: Sf9 insect cells (Bac-to-Bac baculovirus system)
Description: (§1) Protein expression and purification. […] Enzymatic inhibition assay. […] Cancer cell lines. […] Cell proliferation assay. […] Western blot.

PRMT5:MEP50 = molecular target: T2, PRMT5:MEP50 (Homo sapiens, UniProt O14744); test: MTase-Glo enzymatic inhibition assay; type: biochemical; details: 100 nM PRMT5:MEP50, 10 μM SAM, 2 μM histone H4 (1-21)
T2 construct: made in house; host or cells: Sf9 insect cells (Bac-to-Bac baculovirus system)
T2 sequence (O14744 whole entry): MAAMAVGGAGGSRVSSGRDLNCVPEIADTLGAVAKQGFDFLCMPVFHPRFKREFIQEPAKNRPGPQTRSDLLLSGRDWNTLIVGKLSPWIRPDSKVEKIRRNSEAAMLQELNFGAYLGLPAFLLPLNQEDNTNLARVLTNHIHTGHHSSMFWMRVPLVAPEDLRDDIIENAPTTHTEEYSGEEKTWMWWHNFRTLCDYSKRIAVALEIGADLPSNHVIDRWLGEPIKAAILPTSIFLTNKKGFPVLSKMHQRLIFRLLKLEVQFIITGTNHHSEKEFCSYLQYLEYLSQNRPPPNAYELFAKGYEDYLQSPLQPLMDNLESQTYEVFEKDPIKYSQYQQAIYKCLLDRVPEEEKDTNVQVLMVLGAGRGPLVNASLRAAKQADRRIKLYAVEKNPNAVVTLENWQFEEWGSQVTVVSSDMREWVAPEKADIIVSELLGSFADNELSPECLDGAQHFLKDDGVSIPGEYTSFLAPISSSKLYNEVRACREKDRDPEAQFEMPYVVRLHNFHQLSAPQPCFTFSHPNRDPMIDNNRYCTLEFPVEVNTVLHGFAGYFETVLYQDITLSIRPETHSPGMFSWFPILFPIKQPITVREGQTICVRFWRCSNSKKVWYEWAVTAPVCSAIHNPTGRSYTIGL
T2 sequence (Q9BQA1 whole entry partner): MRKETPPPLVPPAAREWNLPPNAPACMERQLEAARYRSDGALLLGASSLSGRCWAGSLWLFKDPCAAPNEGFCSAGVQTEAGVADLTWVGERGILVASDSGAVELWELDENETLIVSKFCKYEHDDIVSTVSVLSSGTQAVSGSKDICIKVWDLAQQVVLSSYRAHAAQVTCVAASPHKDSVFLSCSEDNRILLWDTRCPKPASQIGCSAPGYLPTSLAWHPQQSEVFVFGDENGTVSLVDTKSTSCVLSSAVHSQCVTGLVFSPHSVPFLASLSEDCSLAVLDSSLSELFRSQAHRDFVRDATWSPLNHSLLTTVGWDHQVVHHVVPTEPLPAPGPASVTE
Description: as §1

PRMT5 [2] = molecular target: T1, PRMT5; test: Cellular Thermal Shift Assay; type: cell-based; set-up: endogenous in cells; host or cells: MDA-MB-231; details: MDA-MB-231 triple negative breast cancer cells

T1 sequence (O14744 whole entry): as the sequence (O14744 whole entry) above
T1 sequence (Q9BQA1 whole entry partner): as the sequence (Q9BQA1 whole entry partner) above

| IC50 (PRMT5:MEP50; 11-series) [nM] | IC50 (PRMT5:MEP50; 15-series) [nM] | Structure (SMILES) | also measured |
| --- | --- | --- | --- |
| – | – | CCn1c2ccccc2c2cc(CNCc3ccccn3)ccc21 [CMP5] | enzymatic inhibition activity (PRMT5 [1]): weak |
| 1340 | – | CCn1c2c(c3cc(C(=O)NCc4ccc5ccc(N)nc5c4)ccc31)CCCC2 [Compound 11-1F] | – |
| 883 | – | Nc1ccc2ccc(CNC(=O)c3ccc4c(c3)c3c(n4CCO)CCCC3)cc2n1 [Compound 11-2F] | – |
| – | – | CCn1c2c(c3cc(C(=O)NCc4ccc5c(N)nc(N)nc5c4)ccc31)CCCC2 [Compound 11-9F] | PRMT5 melting temperature increase (PRMT5 [2]): 1.5 degree Celsius |
| – | 218 | CC(=O)N1CCC(Nc2cc(C(=O)NCc3ccc4ccc(N)nc4c3)ncn2)CC1 [Compound 15-1F] | – |
| – | 152 | CC(=O)N1CCC(Nc2cc(C(=O)NCc3ccc4c(N)nc(N)nc4c3)ncn2)CC1 [Compound 15-2F] | – |
